This note sets out measurements from patent US10800791B2, “Triazole ACC inhibitors and uses thereof” (Gilead Apollo, LLC, priority 2015, dated 2020).

Structures are written as SMILES. ≈ marks a conversion by molar mass, not a printed value. Like-named read-outs stand apart in the source and are kept apart here.

One assay addresses human (hACC2) (Homo sapiens, UniProt O00763). The assay is described as follows: In vitro ACC inhibition assay (ADP-Glo), hACC2. Conditions: Table 2b, additional results, 5 nM ACC2, 20 μM ATP, 20 μM acetyl-CoA. Format: biochemical. How it is done: The detailed procedure is as follows. […] 10 μL ADP glo reagent was added. […] 20 μL kinase detection reagent was added.
On the technique in general: ADP-Glo first removes unused ATP, then detects ADP through luciferase.

For another assay, the system named is C. albicans. The assay is described as follows: Antifungal Activity Assay (broth microtiter MIC), C. albicans. Format: cell-based, Candida albicans. Conditions: Candida albicans, ATCC90028, 48 h. Put shortly:
(§1)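 Susceptibility was determined by CLSI M27-A3 broth microdilution in RPMI 1640 buffered with MOPS. Growth inhibition was scored visually after 48 h.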

Another assay concerns C. krusei. The experiment in a line: Antifungal Activity Assay (broth microtiter MIC), C. krusei. Format: cell-based, Candida krusei. Conditions: Pichia kudriavzevii, ATCC6258, 48 h. A digest of the protocol:
as §1

The test system of a further assay is C. parapsilosis. The experiment in a line: Antifungal Activity Assay (broth microtiter MIC), C. parapsilosis. The format is cell-based, Candida parapsilosis. To be noted: Lodderomyces parapsilosis, ATCC22019, 48 h. A digest of the protocol: as §1
A further assay deals with fungal (fACC2) (UniProt Q00955). To be noted: read-out: fACC2 (in vitro ACC2 Inhibition Assay, IC50); Table 2b, additional results; ADP-Glo, 5 nM ACC2, 20 μM ATP, 20 μM acetyl-CoA.
Setting [1] is: Table 3b (additional results), ATCC 90028, 3 replicates, MIC recorded at 48 h, read-out: MIC, C. albicans ATCC 90028.
The mark [2] stands for this setting: Table 3b (additional results), ATCC 6258, 3 replicates, MIC recorded at 48 h, read-out: MIC, C. krusei ATCC 6258.
The mark [3] stands for this setting: Table 3b (additional results), ATCC 22019, 3 replicates, MIC recorded at 48 h, read-out: MIC, C. parapsilosis ATCC 22019.
[4] abbreviates: read-out: MIC, C. albicans ATCC 90028, Table 3b (additional results), 3 replicates, MIC recorded at 48 h.
Where [5] appears, read: read-out: MIC, C. krusei ATCC 6258, Table 3b (additional results), 3 replicates, MIC recorded at 48 h.
Where [6] appears, read: read-out: MIC, C. parapsilosis ATCC 22019, Table 3b (additional results), 3 replicates, MIC recorded at 48 h.

human (hACC2), sequence (O00763 whole entry): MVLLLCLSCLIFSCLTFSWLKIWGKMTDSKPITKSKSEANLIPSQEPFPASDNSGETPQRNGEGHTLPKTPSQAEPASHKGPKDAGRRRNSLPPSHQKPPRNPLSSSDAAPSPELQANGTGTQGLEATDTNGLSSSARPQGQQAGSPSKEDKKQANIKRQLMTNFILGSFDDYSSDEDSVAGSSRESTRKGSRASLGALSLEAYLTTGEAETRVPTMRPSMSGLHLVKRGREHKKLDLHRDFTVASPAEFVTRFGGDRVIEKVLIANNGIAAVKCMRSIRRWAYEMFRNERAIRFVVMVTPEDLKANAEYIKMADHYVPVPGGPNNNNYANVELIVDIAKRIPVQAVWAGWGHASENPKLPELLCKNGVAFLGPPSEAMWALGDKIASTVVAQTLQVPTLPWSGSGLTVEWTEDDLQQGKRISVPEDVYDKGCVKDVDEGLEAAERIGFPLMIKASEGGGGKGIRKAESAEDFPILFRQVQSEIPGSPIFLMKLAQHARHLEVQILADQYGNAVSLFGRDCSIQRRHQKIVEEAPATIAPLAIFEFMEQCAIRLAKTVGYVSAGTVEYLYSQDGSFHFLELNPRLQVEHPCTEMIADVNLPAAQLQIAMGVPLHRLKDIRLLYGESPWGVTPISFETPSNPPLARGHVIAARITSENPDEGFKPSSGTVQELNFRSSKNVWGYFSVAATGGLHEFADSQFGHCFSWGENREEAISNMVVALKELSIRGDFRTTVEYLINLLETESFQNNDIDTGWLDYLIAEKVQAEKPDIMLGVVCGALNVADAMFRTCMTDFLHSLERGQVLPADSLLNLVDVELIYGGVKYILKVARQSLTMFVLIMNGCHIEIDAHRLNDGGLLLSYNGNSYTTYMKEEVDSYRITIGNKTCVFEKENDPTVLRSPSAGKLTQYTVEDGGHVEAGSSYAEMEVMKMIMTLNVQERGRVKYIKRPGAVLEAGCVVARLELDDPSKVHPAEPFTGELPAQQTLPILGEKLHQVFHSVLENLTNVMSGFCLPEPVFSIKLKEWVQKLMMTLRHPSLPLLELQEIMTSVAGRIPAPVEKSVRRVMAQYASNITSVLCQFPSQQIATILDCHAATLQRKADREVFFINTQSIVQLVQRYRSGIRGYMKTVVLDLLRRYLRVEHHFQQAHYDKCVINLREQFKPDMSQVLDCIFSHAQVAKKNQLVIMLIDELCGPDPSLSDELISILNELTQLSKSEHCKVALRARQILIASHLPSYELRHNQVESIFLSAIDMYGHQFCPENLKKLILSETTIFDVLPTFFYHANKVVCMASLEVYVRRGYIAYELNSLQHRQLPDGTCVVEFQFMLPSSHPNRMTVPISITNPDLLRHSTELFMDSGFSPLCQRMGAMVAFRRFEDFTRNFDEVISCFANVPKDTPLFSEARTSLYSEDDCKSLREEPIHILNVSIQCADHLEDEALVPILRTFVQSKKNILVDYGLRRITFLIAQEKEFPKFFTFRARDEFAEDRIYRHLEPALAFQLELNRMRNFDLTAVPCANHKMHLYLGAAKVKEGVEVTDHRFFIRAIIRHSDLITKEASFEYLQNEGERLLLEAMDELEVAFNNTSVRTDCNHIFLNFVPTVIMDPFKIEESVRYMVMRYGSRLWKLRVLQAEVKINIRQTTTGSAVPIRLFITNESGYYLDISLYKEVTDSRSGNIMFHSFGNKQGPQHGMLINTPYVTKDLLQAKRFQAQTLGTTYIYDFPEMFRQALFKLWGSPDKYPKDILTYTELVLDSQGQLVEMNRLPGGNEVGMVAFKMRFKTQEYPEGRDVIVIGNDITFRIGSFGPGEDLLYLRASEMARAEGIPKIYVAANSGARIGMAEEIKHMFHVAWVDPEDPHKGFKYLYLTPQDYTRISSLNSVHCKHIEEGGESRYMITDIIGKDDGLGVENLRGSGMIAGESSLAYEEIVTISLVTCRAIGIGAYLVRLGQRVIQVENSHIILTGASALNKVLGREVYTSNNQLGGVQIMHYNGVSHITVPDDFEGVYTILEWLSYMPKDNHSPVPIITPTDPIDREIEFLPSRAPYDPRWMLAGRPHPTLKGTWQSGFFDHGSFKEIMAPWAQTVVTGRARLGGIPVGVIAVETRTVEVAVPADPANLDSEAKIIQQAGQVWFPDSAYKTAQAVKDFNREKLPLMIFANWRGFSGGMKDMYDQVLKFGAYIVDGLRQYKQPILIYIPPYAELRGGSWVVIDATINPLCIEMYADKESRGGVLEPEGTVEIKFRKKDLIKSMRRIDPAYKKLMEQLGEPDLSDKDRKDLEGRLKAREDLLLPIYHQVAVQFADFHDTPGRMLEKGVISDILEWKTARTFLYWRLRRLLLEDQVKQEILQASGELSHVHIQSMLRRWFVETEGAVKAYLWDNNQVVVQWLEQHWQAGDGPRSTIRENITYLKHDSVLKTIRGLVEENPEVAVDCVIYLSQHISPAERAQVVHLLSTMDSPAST
fungal (fACC2), sequence (Q00955 whole entry): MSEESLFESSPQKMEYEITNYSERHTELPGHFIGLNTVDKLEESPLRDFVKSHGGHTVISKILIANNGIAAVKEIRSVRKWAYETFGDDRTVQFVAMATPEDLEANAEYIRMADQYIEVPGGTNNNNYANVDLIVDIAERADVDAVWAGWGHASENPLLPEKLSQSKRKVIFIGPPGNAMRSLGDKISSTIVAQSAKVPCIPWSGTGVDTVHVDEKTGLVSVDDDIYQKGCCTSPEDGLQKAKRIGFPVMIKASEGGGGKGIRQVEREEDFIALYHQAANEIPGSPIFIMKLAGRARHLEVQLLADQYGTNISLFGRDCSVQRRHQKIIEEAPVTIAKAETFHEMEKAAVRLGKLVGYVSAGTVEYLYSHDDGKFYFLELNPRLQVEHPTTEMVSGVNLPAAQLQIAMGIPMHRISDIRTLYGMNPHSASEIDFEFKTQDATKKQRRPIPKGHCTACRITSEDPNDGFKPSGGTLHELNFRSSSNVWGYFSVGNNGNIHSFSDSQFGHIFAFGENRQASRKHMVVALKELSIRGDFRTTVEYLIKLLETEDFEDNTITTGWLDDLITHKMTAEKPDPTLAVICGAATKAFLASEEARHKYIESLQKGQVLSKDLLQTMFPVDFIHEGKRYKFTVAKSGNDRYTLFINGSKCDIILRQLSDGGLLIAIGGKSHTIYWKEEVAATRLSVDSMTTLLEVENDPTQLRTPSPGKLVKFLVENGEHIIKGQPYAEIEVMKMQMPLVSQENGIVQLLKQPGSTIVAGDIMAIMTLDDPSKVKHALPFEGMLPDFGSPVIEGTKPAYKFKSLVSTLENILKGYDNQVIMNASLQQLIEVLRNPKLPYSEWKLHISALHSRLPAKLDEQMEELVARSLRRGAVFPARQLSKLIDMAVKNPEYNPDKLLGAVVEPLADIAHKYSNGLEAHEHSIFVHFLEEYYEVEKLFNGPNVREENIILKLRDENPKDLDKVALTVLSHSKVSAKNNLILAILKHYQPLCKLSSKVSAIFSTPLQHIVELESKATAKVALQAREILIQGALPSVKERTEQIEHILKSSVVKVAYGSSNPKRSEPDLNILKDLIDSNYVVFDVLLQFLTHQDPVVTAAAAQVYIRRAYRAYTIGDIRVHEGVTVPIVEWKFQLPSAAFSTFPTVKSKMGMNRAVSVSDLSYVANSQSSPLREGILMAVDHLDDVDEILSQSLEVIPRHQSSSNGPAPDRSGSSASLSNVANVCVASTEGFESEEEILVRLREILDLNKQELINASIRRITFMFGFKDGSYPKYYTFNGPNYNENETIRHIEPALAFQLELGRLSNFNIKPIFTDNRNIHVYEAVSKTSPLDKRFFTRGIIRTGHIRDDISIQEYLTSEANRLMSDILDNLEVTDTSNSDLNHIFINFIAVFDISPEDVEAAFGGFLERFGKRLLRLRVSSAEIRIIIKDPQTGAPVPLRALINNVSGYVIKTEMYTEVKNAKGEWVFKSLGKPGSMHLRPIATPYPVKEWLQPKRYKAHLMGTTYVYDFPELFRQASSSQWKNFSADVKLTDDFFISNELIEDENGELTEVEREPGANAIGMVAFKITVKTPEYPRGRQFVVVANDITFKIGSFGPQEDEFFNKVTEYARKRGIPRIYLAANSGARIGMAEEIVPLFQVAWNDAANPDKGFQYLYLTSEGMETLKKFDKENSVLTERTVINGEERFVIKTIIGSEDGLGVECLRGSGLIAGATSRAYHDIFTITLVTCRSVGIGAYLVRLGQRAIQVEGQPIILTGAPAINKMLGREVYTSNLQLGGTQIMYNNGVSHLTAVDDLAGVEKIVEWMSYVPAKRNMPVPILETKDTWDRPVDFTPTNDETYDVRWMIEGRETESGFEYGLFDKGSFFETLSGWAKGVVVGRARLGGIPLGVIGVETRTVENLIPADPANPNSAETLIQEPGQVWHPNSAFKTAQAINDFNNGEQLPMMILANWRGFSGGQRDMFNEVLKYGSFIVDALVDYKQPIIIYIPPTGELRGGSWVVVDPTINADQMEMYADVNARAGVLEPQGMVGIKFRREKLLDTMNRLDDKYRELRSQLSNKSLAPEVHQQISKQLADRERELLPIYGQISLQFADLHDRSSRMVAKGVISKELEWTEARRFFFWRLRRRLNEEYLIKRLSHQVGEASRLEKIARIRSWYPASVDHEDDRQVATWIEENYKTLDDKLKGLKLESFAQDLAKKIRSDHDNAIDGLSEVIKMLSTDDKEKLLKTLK

Broadly, the IC50 is the concentration needed to halve the response being measured. For orientation: MIC means the lowest concentration found to suppress growth. For the compound `COc1ccccc1[C@H](Cn1c(=O)n([C@@H](C)C(=O)N(C)C(C)C)c(=O)c2c(C)c(-n3nccn3)sc21)OCCO` [Compound I-207], the IC50 fell in the range of 5 to 10 nM against human (hACC2) and 0.3 to 1 nM on fungal (fACC2). The MIC in the assay on C. albicans (setting [1]), in the assay with C. krusei (setting [2]) and with C. parapsilosis (setting [3]) was 1.01 to 2 µg/mL (≈ 1.77 to 3.5 µM) in each case.

`COc1ccccc1[C@H](Cn1c(=O)n(C(C)(C)C(=O)NC(C)C)c(=O)c2c(C)c(-n3nccn3)sc21)OCCN1CC(F)C1` [Compound I-209]: the results for the IC50 on human (hACC2) and on fungal (fACC2) were above 40 nM and 1 to 5 nM, respectively. The MIC in the assay with C. albicans (setting [4]) lay within 1.01 to 2 µg/mL (≈ 1.61 to 3.19 µM); in the assay with C. krusei (setting [5]) it was 0.25 to 1 µg/mL (≈ 0.398 to 1.59 µM); in the assay on C. parapsilosis (setting [6]), 0.25 to 1 µg/mL (≈ 0.398 to 1.59 µM).

In the case of `COc1ccc(F)cc1[C@H](Cn1c(=O)n(C(C)(C)C(=O)NC(C)C)c(=O)c2c(C)c(-n3nccn3)sc21)OCCC(=O)N(C)O` [Compound I-219], the IC50 against human (hACC2) lay in the range of 5 to 10 nM; at fungal (fACC2), 1 to 5 nM. Further, the MIC with C. albicans (setting [4]), in the assay with C. krusei (setting [5]) and in the assay with C. parapsilosis (setting [6]) was 0.25 to 1 µg/mL (≈ 0.387 to 1.55 µM) each time.

Take `COc1ccc(F)cc1[C@H](Cn1c(=O)n(C(C)(C)C(=O)NC(C)C)c(=O)c2c(C)c(-n3nccn3)sc21)OCCC(O)CO` (some centres unmarked) [Compound I-220]: the IC50 against human (hACC2) was in the range of 10 to 40 nM; on fungal (fACC2) it was 1 to 5 nM. The MIC with C. albicans (setting [1]), in the assay on C. krusei (setting [2]) and in the assay with C. parapsilosis (setting [3]) was 0.25 to 1 µg/mL (≈ 0.395 to 1.58 µM) throughout.

For `COc1ccc(Cl)cc1[C@H](Cn1c(=O)n(C(C)(C)C(=O)NC2CCC2)c(=O)c2c(C)c(-n3nccn3)sc21)OC1CCOCC1` [Compound I-228], the IC50 at human (hACC2) was in the range of 5 to 10 nM; at fungal (fACC2), 1 to 5 nM. Also, the MIC with C. albicans (setting [1]) lay within 0.25 to 1 µg/mL (≈ 0.38 to 1.52 µM); with C. krusei (setting [2]), 0.06 to 0.249 µg/mL (≈ 0.0913 to 0.379 µM); in the assay on C. parapsilosis (setting [3]) it was 0.25 to 1 µg/mL (≈ 0.38 to 1.52 µM).

With `CCc1ccc(F)cc1[C@H](Cn1c(=O)n(C(C)(C)C(=O)NC2CCC2)c(=O)c2c(C)c(-n3nccn3)sc21)OC1CCOCC1` [Compound I-232], the IC50 against human (hACC2) lay in the range of 5 to 10 nM; on fungal (fACC2) it was 1 to 5 nM. For the same compound, the MIC lay within 2.01 to 4 µg/mL (≈ 3.15 to 6.26 µM) with C. albicans (setting [1]), 1.01 to 2 µg/mL (≈ 1.58 to 3.13 µM) in the assay on C. krusei (setting [2]) and 1.01 to 2 µg/mL (≈ 1.58 to 3.13 µM) in the assay on C. parapsilosis (setting [3]).

Regarding `COc1ccc(F)cc1[C@H](Cn1c(=O)n(C(C)(C)C(=O)NC(C)C)c(=O)c2c(C)c(-n3nccn3)sc21)O[C@H]1C[C@@H](OCc2ccccc2)C1` [Compound I-233], the IC50 against human (hACC2) fell in the range of 10 to 40 nM; on fungal (fACC2), 1 to 5 nM. The MIC with C. albicans (setting [1]), with C. krusei (setting [2]) and with C. parapsilosis (setting [3]) was 0.25 to 1 µg/mL (≈ 0.355 to 1.42 µM) each time.

As to `Cc1c(-n2nccn2)sc2c1c(=O)n(C(C)(C)C(=O)NC(C)C)c(=O)n2C[C@H](OCCO)c1cc(F)ccc1OCc1ccccc1` [Compound I-237], the IC50 against human (hACC2) is 10 to 40 nM; on fungal (fACC2), 1 to 5 nM. In addition, the MIC with C. albicans (setting [1]), in the assay with C. krusei (setting [2]) and with C. parapsilosis (setting [3]) was 1.01 to 2 µg/mL (≈ 1.52 to 3.01 µM) throughout.

With `CCc1ccccc1[C@H](Cn1c(=O)n(C(C)(C)C(=O)NC(C)C)c(=O)c2c(C)c(-n3nccn3)sc21)O[C@H]1CC[C@@H](C#N)CC1` [Compound I-242], the IC50 against human (hACC2) and at fungal (fACC2) was 1 to 5 nM throughout. Moreover, the MIC in the assay with C. albicans (setting [4]), in the assay with C. krusei (setting [5]) and in the assay with C. parapsilosis (setting [6]) was 1.01 to 2 µg/mL (≈ 1.6 to 3.17 µM) each time.

As for `CCc1ccc(F)cc1[C@H](Cn1c(=O)n(C(C)(C)C(=O)NC(C)C)c(=O)c2c(C)c(-n3nccn3)sc21)OC[C@H](C)C#N` [Compound I-243], the IC50 against human (hACC2) is above 40 nM; on fungal (fACC2) it was 1 to 5 nM. The MIC is 2.01 to 4 µg/mL (≈ 3.3 to 6.56 µM) in the assay with C. albicans (setting [1]), above 4.01 µg/mL with C. krusei (setting [2]) and 2.01 to 4 µg/mL (≈ 3.3 to 6.56 µM) in the assay with C. parapsilosis (setting [3]).
